System: HBV
Experiment: Therapeutic effect on HepG2-hNTCP 2B1 infected by HBV (drug from day 6 after infection)
Assay type: cell-based, hepatitis B virus
Conditions: drug treatment from 6 days after HBV infection to day 12, Palovarotene at high concentrations (p<0.05), ETV 1 μM, vs blank group
Method: This experiment was carried out in a 24-well culture plate. […] About 1.5×10^5 HepG2-hNTCP 2B1 cells were plated in each well, and 500 μL of medium B was added to each well. After the cells adhered, medium A was used for replacement to perform the induction with Doxycycline during the whole experiment.
4 Days after the induction with Doxycycline, HBV infection was performed, and the amount of HBV in each well was 100 MOI. Before infection, HBV was diluted in medium C to obtain HBV solution, and the infection volume was 250 μL per well. During infection, the cell supernatant was first removed by suction, the HBV solution was added to the cells, and the cells were incubated for 24 hours, then the supernatant was collected as the sample of Day 0. Then the cells were washed three times with PBS, and fresh medium C was used for replacement. After that, the supernatant was collected every two days for detection, fresh medium C was used for replacement. On the 6th day, fresh drug-containing medium A was used for replacement to start drug treatment, then the supernatant was collected every two days for detection, and fresh drug-containing medium A was used for replacement, until the 12th day, all the supernatant and cells were collected for relevant detection. The detection items included HBsAg, HBeAg, HBV DNA, HBV cccDNA, and for the detection method, please refer to Example 1.

C=C1[C@H](CO)[C@@H](O)C[C@@H]1n1cnc2c(=O)[nH]c(N)nc21 [ETV, Entecavir]
no significant difference: HBeAg | level of HBV DNA | level of HBV cccDNA

Source: patent US12569468B2, “Use of palovarotene in treatment against HBV virus” (YANG SHENG TANG COMPANY, LTD., priority 2020, dated 2026)
